Experimental data: article PMC7016953 (Cells, 2020)

Tests used:
TRPC3 = biological target: T1, TRPC3 (Homo sapiens, UniProt Q13507); experiment: Fluo-4 Ca2+ influx assay in HEK TRPC3-YFP cell suspensions; type: cell-based; settings: for IC50: inhibitor 5 min, then 50 µM artemisinin, fluo-4, read-out: IC50 for inhibition of artemisinin-induced increases in [Ca2+]i; for effect of preincubation on responses to artemisinin (1–200 µM): 10 µM for 5 min; for TRPC3 activation in concentration response analysis: fluo-4, up to 200 µM, compared with solvent (DMSO)
T1 construct: expressed in transfected cells
T1 sequence (Q13507 1-848 isoform Q13507-3): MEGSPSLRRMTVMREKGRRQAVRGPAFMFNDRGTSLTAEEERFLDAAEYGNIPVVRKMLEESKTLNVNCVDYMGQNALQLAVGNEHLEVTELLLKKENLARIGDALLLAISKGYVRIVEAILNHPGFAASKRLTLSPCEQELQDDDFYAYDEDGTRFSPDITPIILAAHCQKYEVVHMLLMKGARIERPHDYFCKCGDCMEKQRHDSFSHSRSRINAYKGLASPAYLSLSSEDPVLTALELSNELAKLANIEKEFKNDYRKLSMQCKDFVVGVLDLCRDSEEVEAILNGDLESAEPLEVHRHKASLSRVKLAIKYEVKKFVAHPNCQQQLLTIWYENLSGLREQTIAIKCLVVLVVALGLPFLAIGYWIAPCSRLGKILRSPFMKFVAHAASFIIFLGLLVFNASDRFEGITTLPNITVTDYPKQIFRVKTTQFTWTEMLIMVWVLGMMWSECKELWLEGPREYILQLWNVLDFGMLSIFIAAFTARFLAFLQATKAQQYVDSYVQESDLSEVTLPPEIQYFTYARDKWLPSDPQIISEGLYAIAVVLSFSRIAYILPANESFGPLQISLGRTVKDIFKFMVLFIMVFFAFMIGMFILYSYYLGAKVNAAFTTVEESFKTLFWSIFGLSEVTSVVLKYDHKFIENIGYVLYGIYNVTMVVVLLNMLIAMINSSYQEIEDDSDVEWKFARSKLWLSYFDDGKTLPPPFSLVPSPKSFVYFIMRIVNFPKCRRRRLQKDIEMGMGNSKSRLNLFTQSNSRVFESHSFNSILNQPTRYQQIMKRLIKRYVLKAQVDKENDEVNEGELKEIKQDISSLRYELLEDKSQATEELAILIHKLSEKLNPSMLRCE

[1] = system: PC12 cells (native TRPC3 channel complexes); experiment: Whole-cell patch-clamp recordings in PC12 cells; type: cell-based, rat; settings: 20 µM CBN 2910-0498, 10 µM SAR7334, or 10 µM GSK417654A
Experimental: The recordings of TRPC3, TRPC6, or TRPC7 membrane currents in HEK293 or PC12 cells were realized by using a Multiclamp 700B amplifier with a Digidata 1440A digitizer controlled by the PClamp 10 software (all Molecular Devices, Sunnyvale, CA, U.S.A.). Recordings were obtained at room temperature either in the whole-cell or in an outside-out configuration as indicated. Cells were seeded as described above, but at lower density, mounted in a chamber (Warner Instruments, Hamden, CT; U.S.A.), placed onto the stage of an inverted microscope, and perfused with required solution. The standard extracellular solution contained 140 mM NaCl, 5 mM CsCl, 2 mM MgCl2, 1 mM CaCl2, 10 mM HEPES, and 0.035% BSA adjusted to pH 7.4 with NaOH. The composition of standard intracellular solution was 140 mM CsCl, 1 mM MgCl2, 5 mM EGTA, and 10 mM HEPES adjusted to pH 7.25 with CsOH; the osmolarity was 295 mOsm l^−1. In outside-out measurements, the pipette solution contained 5 mM EGTA and 1.1 mM CaCl2 to achieve a calculated free Ca^2+ concentration of 100 nM.
Patch pipettes were pulled from borosilicate glass capillaries BG150F-8P (Science Products, Hofheim, Germany) with a PIP6 pipette puller (HEKA Elektronik, Lambrecht, Germany). […] In all whole-cell measurements, the series resistance was lower than 13 MΩ, and compensated by 70%. If the access was unstable during the experiment (increase in series resistance by more than 15% at the end of the experiment), the cell was omitted from the analysis. To record current/voltage (I/V) curves, voltage ramps (400 mV s^−1) ranging from –100 to +100 mV were applied. Currents were filtered at 3 kHz with a four-pole Bessel filter and sampled at 10 kHz. […]
Figure 9 Artemisinin-induced ionic currents in HEK293 cells and in PC12 cells are sensitive to established TRPC3 inhibitors. […] Concentration–response curves were normalized to responses measured without an inhibitor (controls), and IC50 values were obtained by fitting a four-parameter Hill equation to the data. […]

[2] = system: PC12 cells (native TRPC3 channel complexes); experiment: [Ca2+]i analysis in fura-2-loaded PC12 cells; type: cell-based, rat; settings: artemisinin 50 or 100 µM; 6–12 experiments for each compound
Experimental: Human embryonic kidney 293 (HEK293) cells were stably transfected with expression plasmids that encode hTRPC3-YFP, hTRPC6-YFP, hTRPC7-YFP, mTRPC4ß-YFP, rTRPV1-CFP, rTRPV2-YFP, rTRPV3-YFP, mTRPV4-YFP, or hTRPM2 as previously described. Cell lines were cultured in Earle’s minimum essential medium (MEM; Sigma, Munich, Germany), supplemented with 10% fetal calf serum (Gibco Thermo Fisher Scientific, Darmstadt, Germany), 2 mM L-glutamine, and required concentrations of geneticin in a range of 0.4–1 mg/mL. A HEK293mTRPC5-YFP cell line was maintained and induced as described before. The HEK293mTRPM3α2 cells (expressing the Ca^2+-permeable main variant of mouse TRPM3) were kindly provided by Johannes Oberwinkler (Marburg, Germany), the HEK293hTRPA1 cells that constitutively overexpress the human TRPA1 were from Dr. Natalie Tigue and Dr. Steve Moore (GlaxoSmithKline, Harlow, UK). With the exception of mTRPC5-YFP, all cell lines constitutively overexpress the respective TRP channel under the control of a cytomegalovirus (CMV) promoter. A HEK cell line stably expressing the human protein kinase C (PKC) ε C-terminally tagged with YFP [13] was generated and maintained in the same medium as HEKTRPC3-YFP cells. PC12 cells were cultured in RPMI-1640 (Sigma, Munich, Germany) with 10% fetal calf serum, 2 mM L-glutamine, 100 U/mL penicillin, and 0.1 mg/mL streptomycin. For electrophysiological and single cell [Ca^2+]i imaging experiments, PC12 cells were plated onto 25 mm poly-L-lysine-coated glass coverslips and measured 24–48 h after seeding. All cells were maintained at 37 °C in a 5% CO2-aerated, humidified atmosphere.
The microfluorometric single-cell [Ca^2+]i analysis was performed on an inverted epifluorescence microscope (Carl Zeiss, Jena, Germany) and calibrated as described. Cells were grown on 25 mm coverslips and loaded with 4 µM fura-2/AM (AAT Bioquest, Sunnyvale, CA, U.S.A.) in HBS containing 0.2% BSA for 30 min at 37 °C. After gently rinsing the coverslips with HBS, coverslips were mounted in a bath chamber and superfused with HBS containing 0.035% BSA.
Figure 7 Expression of TRPC3 and functional responses to TRPC activators in PC12 rat pheochromocytoma cells. (A) Immunofluorescence analysis of TRPC3 (green channel) and tyrosine hydroxylase (TH; red channel) expression in PC12 cells. Nuclei were counterstained with DAPI (blue channel). Bars: 20 µm scale. Time course of the [Ca^2+]i (B) and averaged basal and peak [Ca^2+]i values (C) were recorded by microfluorometric analysis in fura-2-loaded PC12 cells grown on glass coverslips. […] Data represent averages (B) or means and S.D. (C) of 6–12 imaging experiments for each compound. Significant increases compared to the respective basal values are indicated (#: p < 0.05; Student´s t-test for paired data).

hTRPC7-YFP = system: T2, hTRPC7-YFP; experiment: Fluo-4 Ca2+ influx assay in HEK293 cells stably expressing TRPC7; type: cell-based, human; settings: fluo-4 concentration response analysis
T2 construct: expressed in transfected cells

[3] = system: T3, heteromeric TRPC3:TRPC6 channel complexes; experiment: Fluo-4 Ca2+ influx assay in HEK293 cells co-expressing TRPC3 and TRPC6; type: cell-based; settings: fluo-4 concentration response analysis
T3 construct: expressed in transfected cells; host or cells: HEK293, stably co-transfected
Experimental: All fluorometric Ca^2+ assays were done in (4-(2-hydroxyethyl)-1-piperazineethanesulfonic acid) (HEPES)-buffered saline (HBS), containing 132 mM NaCl, 6 mM KCl, 1 mM MgCl2, 1 mM CaCl2, 5.5 mM D-glucose, 10 mM HEPES, and 0.035% bovine serum albumin (BSA) adjusted to pH 7.4 with NaOH. For measurements in Ca^2+-free bath solutions, a modified HBS without CaCl2 was supplemented with 200 µM ethylene glycol-bis(β-aminoethyl ether)-N,N,N′,N′-tetraacetic acid (EGTA).
The primary compound screen and the generation of concentration response curves in HEK293 cells or in PC12 cells were performed by using a custom-made fluorescence plate imager built into a robotic liquid handling station equipped with a 96-tip multichannel head (Freedom Evo 150, Tecan, Männedorf, Switzerland) as described previously. To this end, trypsinized cell suspensions were loaded with 4 µM fluo-4/AM (Invitrogen, Thermo Fisher Scientific, Waltham, MA, U.S.A.) in cell culture medium for 30 min at 37 °C. After brief centrifugation, cells were resuspended in HBS and dispensed into black pigmented, clear-bottom 384-well plates (Greiner µClear, Frickenhausen, Germany). Plates were mounted on the imager, and fluorescence signals were recorded with a cooled Zyla 5.5 camera (Andor, Belfast, UK) through a 515 nm long pass filter. The image acquisition was controlled by the µManager software (http://micro-manager.org), and excitation with a LED array (470 nm) was synchronized by the camera trigger output. After baseline recording for about 60 s, the compound libraries or serial dilutions of activators or inhibitors were added to the cells by the liquid handling device. When inhibitory potencies were evaluated, a second pipetting step with the respective reference agonist was performed. Fluorescence intensities were calculated from image stacks for each well with ImageJ (National Institutes of Health, Bethesda, MD, U.S.A.), corrected for background signals, and normalized to the initial intensities (F/F0). […]

## COc1ccc(Nc2nc(C(=O)N3CCc4ccccc4C3)cs2)cc1 [GSK417654A]
TRPC3
  IC50: 0.5 µM
[1]
  effect on ionic currents stimulated by 50 µM artemisinin in PC12 cells: rapidly reversed

## O=C(c1cc2c(s1)CCCCC2)N1CCC(n2c(=O)[nH]c3ccccc32)CC1 [GSK-1702934A]
[2]
  [Ca2+]i in fura 2-loaded PC12 cells: significant increases in [Ca^2+]i

## O=c1c2ccccc2[nH]c(=S)n1CCN1CCC(=C(c2ccc(F)cc2)c2ccc(F)cc2)CC1 [R59949]
TRPC3
  effect of preincubation on responses to artemisinin (1–200 µM): did not increase the responses

## O=C(NCCCCCCNC(=O)ON=C1CCCCC1)ON=C1CCCCC1 [RHC 80267]
TRPC3
  effect of preincubation on responses to artemisinin (1–200 µM): did not increase the responses

## N#Cc1ccc(O[C@@H]2c3ccccc3C[C@H]2N2CCC[C@@H](N)C2)c(Cl)c1 [SAR7334]
TRPC3
  IC50: 1.4 µM
[1]
  effect on ionic currents stimulated by 50 µM artemisinin in PC12 cells: rapidly reversed

## CCO[C@H]1O[C@@H]2O[C@@]3(C)CC[C@H]4[C@H](C)CC[C@@H]([C@H]1C)[C@@]24OO3 [arteether]
TRPC3
  TRPC3 activation in concentration response analysis: did not exert signals that were significantly stronger than responses to the solvent
hTRPC7-YFP
  effect on TRPC7: inhibited

## CO[C@H]1O[C@@H]2O[C@@]3(C)CC[C@H]4[C@H](C)CC[C@@H]([C@H]1C)[C@@]24OO3 [artemether]
[3]
  response of cells stably transfected with both TRPC3 and TRPC6: in a very similar fashion as HEKTRPC3-YFP cells
TRPC3; fluo-4, HEK TRPC3-YFP cell suspensions, read-out: potency to activate Ca2+ entry through TRPC3
  EC50: 14.8 µM
hTRPC7-YFP
  effect on TRPC7: inhibited

## C[C@H]1[C@H](OC(=O)CCC(=O)O)O[C@@H]2O[C@@]3(C)CC[C@H]4[C@H](C)CC[C@@H]1[C@@]24OO3 [artesunate]
TRPC3
  TRPC3 activation in concentration response analysis: did not exert signals that were significantly stronger than responses to the solvent
